# Calls of active or inactive are those of the source.
# What was measured:
# [1] = target: Eukaryotic translation initiation factor 4E (Mus musculus, UniProt P63073); assay: blockers of eIF4G binding by eIF4E – biochemical, TR-FRET, dose response (AID 855); assay type: functional;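 note: potency for disrupting eIF4E binding to eIF4GI seen as loss of FRET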
# [2] = target: Induced myeloid leukemia cell differentiation protein Mcl-1 (Homo sapiens, UniProt Q07820); assay type: functional
# [3] = target: T1, DNA repair protein RAD52 homolog (Homo sapiens, UniProt P43351); assay type: functional, biochemical
# T1 sequence (P43351 whole entry): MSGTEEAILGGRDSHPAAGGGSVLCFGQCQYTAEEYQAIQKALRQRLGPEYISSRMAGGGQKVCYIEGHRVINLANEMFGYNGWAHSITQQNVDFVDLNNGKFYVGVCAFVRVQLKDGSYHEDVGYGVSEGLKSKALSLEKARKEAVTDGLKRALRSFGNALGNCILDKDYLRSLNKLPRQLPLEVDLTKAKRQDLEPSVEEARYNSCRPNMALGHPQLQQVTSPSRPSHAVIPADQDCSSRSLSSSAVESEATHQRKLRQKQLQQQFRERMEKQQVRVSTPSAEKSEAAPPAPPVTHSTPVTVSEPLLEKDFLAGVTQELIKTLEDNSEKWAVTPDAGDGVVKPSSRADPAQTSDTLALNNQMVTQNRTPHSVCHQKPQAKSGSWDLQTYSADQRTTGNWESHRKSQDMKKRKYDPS
# [4] = target: T2, Calpain-2 catalytic subunit (Sus scrofa, UniProt P43367); assay: m-calpain protease blockers, concentration series – biochemical, fluorogenic peptide substrate, dose response (AID 1420); assay type: functional
# T2 sequence (P43367 whole entry): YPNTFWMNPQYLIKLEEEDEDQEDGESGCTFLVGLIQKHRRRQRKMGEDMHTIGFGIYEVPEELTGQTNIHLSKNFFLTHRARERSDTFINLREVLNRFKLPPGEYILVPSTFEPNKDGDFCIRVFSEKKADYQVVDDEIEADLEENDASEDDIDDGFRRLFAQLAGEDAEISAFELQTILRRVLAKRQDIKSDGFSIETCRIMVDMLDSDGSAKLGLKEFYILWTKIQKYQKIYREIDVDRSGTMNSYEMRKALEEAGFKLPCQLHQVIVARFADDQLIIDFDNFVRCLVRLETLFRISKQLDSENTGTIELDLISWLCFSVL
# [5] = blockers of HIV-1 envelope-mediated cell-cell fusion – cherry-pick, dose response (AID 652057); assay type: functional, cell-based
# [6] = target: T3, Cytochrome P450 2C9 (Homo sapiens, UniProt P11712)
# T3 sequence (P11712 whole entry): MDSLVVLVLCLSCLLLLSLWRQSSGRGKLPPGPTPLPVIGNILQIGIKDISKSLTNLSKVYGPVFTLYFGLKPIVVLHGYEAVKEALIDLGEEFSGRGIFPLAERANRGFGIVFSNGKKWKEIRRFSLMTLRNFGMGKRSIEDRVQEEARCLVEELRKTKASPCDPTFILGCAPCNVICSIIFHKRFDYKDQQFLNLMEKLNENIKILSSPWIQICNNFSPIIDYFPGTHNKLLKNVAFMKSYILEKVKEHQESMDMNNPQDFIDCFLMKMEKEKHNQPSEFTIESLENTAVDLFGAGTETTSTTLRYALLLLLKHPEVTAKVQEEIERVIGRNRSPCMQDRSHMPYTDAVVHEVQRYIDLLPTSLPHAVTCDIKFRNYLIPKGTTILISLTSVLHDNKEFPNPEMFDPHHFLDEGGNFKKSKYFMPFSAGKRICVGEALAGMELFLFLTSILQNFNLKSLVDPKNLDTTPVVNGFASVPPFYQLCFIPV
# [7] = target: T4, Small ubiquitin-related modifier 1 (Homo sapiens, UniProt P63165); assay: SUMO1 protein-protein binding blockers, potency – biochemical, FRET, dose response (AID 624383); assay type: functional; settings: read-out: IC50_Mean
# T4 sequence (P63165 whole entry): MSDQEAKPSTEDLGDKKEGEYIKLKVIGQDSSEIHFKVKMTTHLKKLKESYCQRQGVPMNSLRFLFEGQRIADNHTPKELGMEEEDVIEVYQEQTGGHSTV
# [8] = target: T4, Small ubiquitin-related modifier 1; assay: SUMO1 protein interaction blockers, potency – biochemical, fluorescence polarization, uHTS hits, dose response (AID 624382); assay type: functional; settings: read-out: IC50_Mean
# [9] = target: T5, Cytochrome P450 1A2 (Homo sapiens, UniProt P05177);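 note: PubChem cytochrome P450 panel assay, CYP1A2 panel member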
# T5 sequence (P05177 whole entry): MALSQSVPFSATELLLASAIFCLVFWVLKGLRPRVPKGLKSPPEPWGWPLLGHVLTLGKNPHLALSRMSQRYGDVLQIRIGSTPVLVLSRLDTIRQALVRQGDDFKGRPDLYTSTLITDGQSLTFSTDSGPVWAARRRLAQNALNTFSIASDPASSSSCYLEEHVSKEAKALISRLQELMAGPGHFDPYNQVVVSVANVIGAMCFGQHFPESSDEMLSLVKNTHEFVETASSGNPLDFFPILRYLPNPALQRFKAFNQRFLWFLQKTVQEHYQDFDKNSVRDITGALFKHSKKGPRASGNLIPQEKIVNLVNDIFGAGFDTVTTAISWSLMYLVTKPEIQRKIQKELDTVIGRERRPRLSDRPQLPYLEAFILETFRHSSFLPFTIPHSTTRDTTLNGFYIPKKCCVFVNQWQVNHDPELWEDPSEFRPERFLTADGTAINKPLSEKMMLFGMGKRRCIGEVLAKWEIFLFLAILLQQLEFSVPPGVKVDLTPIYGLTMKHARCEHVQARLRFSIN
# [10] = target: T6, Corticotropin-releasing factor receptor 2/Corticotropin-releasing factor-binding protein (Homo sapiens, UniProt P24387+Q13324); assay: activators of CRF receptor 2 with binding protein – uHTS hits, confirmation (AID 602473); assay type: functional; settings: read-out: EC50_Mean
# T6 sequence (Q13324 whole entry): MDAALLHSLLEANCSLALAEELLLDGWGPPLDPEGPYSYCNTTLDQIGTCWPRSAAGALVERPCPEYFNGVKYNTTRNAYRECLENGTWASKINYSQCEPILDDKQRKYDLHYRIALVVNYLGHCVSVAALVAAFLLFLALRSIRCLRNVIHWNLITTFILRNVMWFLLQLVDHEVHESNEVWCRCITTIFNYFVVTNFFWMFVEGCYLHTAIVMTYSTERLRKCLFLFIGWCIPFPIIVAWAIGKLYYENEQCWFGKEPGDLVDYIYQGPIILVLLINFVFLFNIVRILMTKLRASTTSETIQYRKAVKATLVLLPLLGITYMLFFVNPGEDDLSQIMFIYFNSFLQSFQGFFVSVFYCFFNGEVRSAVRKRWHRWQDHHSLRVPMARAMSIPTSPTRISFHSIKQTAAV
# T6 sequence (P24387 whole entry): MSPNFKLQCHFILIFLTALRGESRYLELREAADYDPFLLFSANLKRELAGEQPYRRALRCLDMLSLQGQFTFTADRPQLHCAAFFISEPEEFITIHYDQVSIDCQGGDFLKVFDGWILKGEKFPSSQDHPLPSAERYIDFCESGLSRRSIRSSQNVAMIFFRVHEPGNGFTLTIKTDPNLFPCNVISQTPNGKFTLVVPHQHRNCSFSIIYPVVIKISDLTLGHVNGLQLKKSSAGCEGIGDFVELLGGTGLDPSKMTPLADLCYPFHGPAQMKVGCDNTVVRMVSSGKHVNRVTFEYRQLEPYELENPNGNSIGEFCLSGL
# [11] = target: T6, Corticotropin-releasing factor receptor 2/Corticotropin-releasing factor-binding protein; assay: Dose Response confirmation of uHTS hits for small molecule antagonists of the CRF-binding protein and CRF-R2 receptor complex.; assay type: functional; settings: read-out: IC50_Mean
# [12] = target: T7, DNA repair and recombination protein RAD54-like (Homo sapiens, UniProt Q92698); assay: RAD54 Holliday junction migration blockers – biochemical, fluorescence, cherry-picked samples, dose series, confirmation (AID 651657); assay type: functional
# T7 sequence (Q92698 whole entry): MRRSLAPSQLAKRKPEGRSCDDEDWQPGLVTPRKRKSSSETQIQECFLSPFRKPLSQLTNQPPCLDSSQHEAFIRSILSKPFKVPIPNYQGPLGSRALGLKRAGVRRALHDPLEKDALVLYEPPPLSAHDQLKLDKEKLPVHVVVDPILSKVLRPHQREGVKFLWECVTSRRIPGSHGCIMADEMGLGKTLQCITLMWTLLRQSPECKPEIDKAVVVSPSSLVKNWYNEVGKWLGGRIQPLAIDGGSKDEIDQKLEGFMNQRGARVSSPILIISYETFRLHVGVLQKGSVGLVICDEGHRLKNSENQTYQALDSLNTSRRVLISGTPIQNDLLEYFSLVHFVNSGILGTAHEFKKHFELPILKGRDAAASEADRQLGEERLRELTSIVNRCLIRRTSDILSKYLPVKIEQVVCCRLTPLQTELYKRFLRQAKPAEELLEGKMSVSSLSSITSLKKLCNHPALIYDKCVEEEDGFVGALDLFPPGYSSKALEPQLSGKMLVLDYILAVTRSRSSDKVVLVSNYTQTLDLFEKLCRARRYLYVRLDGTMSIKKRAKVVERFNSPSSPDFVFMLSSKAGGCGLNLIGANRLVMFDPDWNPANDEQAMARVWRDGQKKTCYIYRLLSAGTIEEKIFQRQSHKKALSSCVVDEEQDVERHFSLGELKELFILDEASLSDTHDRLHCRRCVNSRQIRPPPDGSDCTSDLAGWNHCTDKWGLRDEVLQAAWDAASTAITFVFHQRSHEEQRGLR
# [13] = target: Cytochrome P450 3A4 (Homo sapiens, UniProt P08684);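 note: CYP3A4 tested as one member of a cytochrome P450 panel screen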
# Sequence of Cytochrome P450 3A4 (P08684 whole entry): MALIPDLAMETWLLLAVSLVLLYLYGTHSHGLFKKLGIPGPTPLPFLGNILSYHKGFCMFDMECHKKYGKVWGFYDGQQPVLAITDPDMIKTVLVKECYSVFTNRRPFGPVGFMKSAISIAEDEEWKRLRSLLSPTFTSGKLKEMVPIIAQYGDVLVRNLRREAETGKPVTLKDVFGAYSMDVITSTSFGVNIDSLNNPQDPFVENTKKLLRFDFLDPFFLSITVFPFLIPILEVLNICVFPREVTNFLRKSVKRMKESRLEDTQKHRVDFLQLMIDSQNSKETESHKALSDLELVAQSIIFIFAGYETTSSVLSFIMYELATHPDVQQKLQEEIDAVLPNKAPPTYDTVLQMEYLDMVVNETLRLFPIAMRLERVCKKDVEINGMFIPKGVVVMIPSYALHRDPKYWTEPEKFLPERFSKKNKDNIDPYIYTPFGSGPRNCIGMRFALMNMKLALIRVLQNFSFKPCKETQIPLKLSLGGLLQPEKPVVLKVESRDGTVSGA
# [14] = target: T8, Heat shock factor protein 1 (Mus musculus, UniProt P38532); assay: decrease of HSF1-responsive luciferase luminescence – cell-based, NIH3T3, dose retest, confirmation (AID 2382); assay type: functional;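 note: NIH3T3 fibroblasts with HSF1-driven luciferase reporter stressed by proteasome inhibitor MG132; luminescence from HSF1-driven luciferase expression after 8 hours of MG132 stress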
# T8 sequence (P38532 whole entry): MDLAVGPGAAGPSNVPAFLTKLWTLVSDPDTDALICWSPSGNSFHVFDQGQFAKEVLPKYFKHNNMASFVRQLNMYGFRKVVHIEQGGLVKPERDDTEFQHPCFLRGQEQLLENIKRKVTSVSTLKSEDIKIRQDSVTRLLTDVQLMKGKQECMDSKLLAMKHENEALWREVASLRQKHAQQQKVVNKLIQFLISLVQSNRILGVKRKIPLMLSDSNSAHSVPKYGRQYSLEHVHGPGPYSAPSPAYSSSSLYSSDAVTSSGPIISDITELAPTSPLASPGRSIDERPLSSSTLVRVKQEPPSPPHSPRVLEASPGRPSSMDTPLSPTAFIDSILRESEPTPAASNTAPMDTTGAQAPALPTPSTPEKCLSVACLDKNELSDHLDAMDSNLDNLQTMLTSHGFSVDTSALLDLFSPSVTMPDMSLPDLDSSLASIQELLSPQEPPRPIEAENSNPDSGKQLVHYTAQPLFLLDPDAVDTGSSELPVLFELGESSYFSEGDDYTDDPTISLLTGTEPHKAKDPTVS
# [15] = target: T3, Cytochrome P450 2C9; remark: listed apart in the source
# [16] = HIV-1 AD8 envelope cell-cell fusion blockers – cherry-pick, dose response (AID 652062); assay type: functional, cell-based;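 note: luciferase signal from cell-cell fusion driven by HIV-1 clade B AD8 Env; potency is for inhibitors of fusion seen as a drop in luminescence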
# Sequence of Induced myeloid leukemia cell differentiation protein Mcl-1 (Q07820 whole entry): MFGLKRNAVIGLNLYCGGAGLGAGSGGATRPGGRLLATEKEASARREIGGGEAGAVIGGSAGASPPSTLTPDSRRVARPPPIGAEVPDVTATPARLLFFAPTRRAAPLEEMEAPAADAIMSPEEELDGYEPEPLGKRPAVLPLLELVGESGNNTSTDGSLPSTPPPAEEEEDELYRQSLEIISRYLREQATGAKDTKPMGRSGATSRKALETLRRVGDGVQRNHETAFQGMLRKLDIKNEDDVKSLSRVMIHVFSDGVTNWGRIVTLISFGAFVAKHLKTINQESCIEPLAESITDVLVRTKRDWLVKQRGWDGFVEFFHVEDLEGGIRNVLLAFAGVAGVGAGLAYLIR
# Sequence of Eukaryotic translation initiation factor 4E (P63073 whole entry): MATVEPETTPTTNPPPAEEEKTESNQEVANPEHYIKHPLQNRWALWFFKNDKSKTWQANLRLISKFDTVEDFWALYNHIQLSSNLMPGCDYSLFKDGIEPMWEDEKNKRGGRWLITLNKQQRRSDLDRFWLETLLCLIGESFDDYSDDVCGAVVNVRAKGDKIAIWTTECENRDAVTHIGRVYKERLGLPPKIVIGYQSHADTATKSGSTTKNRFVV
compound,measurement,setting,value
CCNc1nc(NC(C)C)nc(Oc2ccc(=O)n(C)n2)n1,IC50,[1],50 µM (inactive)
COc1ccc2nc(NC(=O)Nc3cccc4ccccc34)sc2c1,IC50,[2],5.86 µM (not active)
CCN1CCN(Cc2ccc(NC(=O)c3cc(NC(=O)c4cnnc5ccccc45)cc(OC)c3)cc2C(F)(F)F)CC1,AC50,[3],24.3 µM (active)
CC(C)CC(=O)Nc1nnc(SCC(=O)Nc2ccc(F)cc2)s1,IC50,[4],> 50 µM (not active)
CCCC(=O)NCc1ccccc1Cl,IC50,[4],36.3 µM (not active)
COc1ccc(S(=O)(=O)N(C)C[C@@H]2Oc3ccc(NC(=O)C4CCCCC4)cc3CC(=O)N([C@@H](C)CO)C[C@@H]2C)cc1,AC50,[5],27.6 µM (active)
CCC(=O)Nc1ccc(C(=O)N2CCN(C(=O)c3ccco3)CC2)cc1,IC50,[4],25.3 µM (not active)
O=C(C1CCN(S(=O)(=O)c2cccc3nsnc23)CC1)N1CCN(c2ccccc2F)CC1,AC50,[6],inconclusive
COc1ccc([N+](=O)[O-])cc1NC(=O)CC(C)c1ccccc1 (stereo unspecified),AC50,[6],inconclusive
O=C(O)c1cc(N/N=C/c2ccc(N3CCOCC3)s2)ccc1Cl,IC50,[2],3.84 µM (active)
CN(C(=O)COC(=O)c1ccc(-c2ccc(O)cc2)cc1)C1CCS(=O)(=O)C1 (stereo unspecified),IC50,[7],16.1 µM (active)
same,IC50,[8],> 66.6 µM (inactive)
Cc1ccc(C2=NNC(=O)C(c3c[nH]c4ccccc34)C2)cc1 (stereo unspecified),IC50,[4],46.4 µM (not active)
O=C1CSC(c2ccccc2F)N1c1cc(Cl)ccc1O (stereo unspecified),AC50,[9],39.8 µM (inconclusive)
same,EC50,[10],> 53 µM (inactive)
same,IC50,[11],> 47.1 µM (inactive)
same,AC50,[6],inconclusive
CCN1CCN(CCCNC(=O)c2cc3c(=O)oc4ccc(C)cc4c3s2)CC1,AC50,[12],36.3 µM (active)
Cc1ccc(N(CC(=O)NC2CCCC2)C(=O)c2ccc(C)s2)cc1,IC50,[4],> 50 µM (not active)
NCCCC[C@H]1CN=C(S)N1CCc1cc(C(F)(F)F)cc(C(F)(F)F)c1,AC50,[3],17.4 µM (active)
CC(C)CC(c1nnnn1C1CCCC1)N1CCC(C(N)=O)CC1 (stereo unspecified),IC50,[4],> 50 µM (not active)
FC(F)(F)c1cnc(/C=C/Nc2ccccc2Cl)c(Cl)c1,AC50,[13],31.6 µM (inconclusive)
same,AC50,[6],inconclusive
O=C(Cn1c(=O)n(-c2ccccc2)c(=O)c2sccc21)N1CCCC1,IC50,[2],11.6 µM (not active)
Cn1c(N)c(C(=O)COC(=O)C2CCCCC2)c(=O)n(C)c1=O,IC50,[4],6.73 µM (active)
COc1ccc(-c2cc(NC=O)c3ncc(-c4cccc(C(=O)NCCN(C)C)c4)n3c2)cn1,AC50,[3],5.69 µM (active)
same,AC50,[12],16.6 µM (active)
O=C(CN1C(=O)S/C(=C\c2ccc(Cl)cc2)C1=O)NNC(=O)c1ccccc1O,IC50,[1],> 64 µM (inactive)
COc1ccc(OC)c(Nc2ncnc3sc(-c4ccccc4)cc23)c1,IC50,[1],> 64 µM (inactive)
Cc1cc(C(=O)OCC(=O)Nc2sc3c(c2C#N)CCC(C)C3)c2ccccc2n1 (stereo unspecified),IC50,[2],5.16 µM (active)
COc1ccccc1CNc1cc(-c2ccccc2OC)ncn1,AC50,[6],inconclusive
Nc1ccccc1-c1nnc(SCc2ccccc2F)nc1O,IC50,[1],> 64 µM (inactive)
CC(C)C(NC(=O)C12CC3CC(CC(C3)C1)C2)C(=O)NC1=NCCS1 (stereo unspecified),IC50,[1],> 64 µM (inactive)
same,EC50,[14],> 195 µM (not active)
same,AC50,[15],25.1 µM (inconclusive)
COCC(=O)N1C[C@@H](C)[C@H](OC)CN(C)C(=O)c2ccc(NC(=O)c3ccc(OC)cc3)cc2OC[C@@H]1C,AC50,[16],5.52 µM (active)

# — ChEMBL document CHEMBL1201862, “PubChem BioAssay data set” (2004)
